Reference: patent US20090104196A1, “Antibodies For Use in Identifying and/or Scoring Prostate Cancer and Androgen Receptor-Dependent Gene Expression Control” (priority 2005, published 2009)
Entries after “also recorded” stand apart in the source; their conditions may differ.

Key:
[1] = tested on: other nuclear receptors (PR, ERα, RARα, TRβ); assay: Reporter assays for other nuclear hormone receptors in 293 cells; type: cell-based; settings: pargyline, FIG. 10k
Description: (§1) 293 and CV-1 cells were cultured and transfected as described^12. LNCaP cells were cultured in phenol-red-free RPMI1640 supplemented with 10% double-stripped fetal calf serum (dsFCS) and transfected with Effectene (Qiagen). The following amounts per well were used: MMTV-LUC, ARE2X-TATA-LUC, ARE2X-TK-LUC, TK-LUC, TREp-LUC, β-RE-LUC, ERE2X-TATA-LUC, PSA-LUC, Slp-ARU-TATA-LUC 500 ng each, 25 ng expression plasmids for AR, PR, ERα, RARα, and TRβ; 500 to 700 ng expression plasmids for LSD1 1-174, LSD1 175-246, LSD1 247-852, LSD1Δ281-360, LSD1ΔAO, pSUPER-control, and pSUPER-LSD1; 100 to 700 ng expression plasmids for LSD1 were transfected per well. […] Luciferase activity was assayed as described^9. All experiments were repeated at least five times in duplicate.

[2] = tested on: PSA gene; assay: qRT-PCR of endogenous PSA gene expression in LNCaP cells; type: cell-based, human; settings: pargyline, FIG. 4d
Description: DNAsel-treated RNA isolated using RNAwiz (Ambion) was used for reverse transcription. Quantitative PCR was performed in an ABI PRISM 7700 sequence detector. Product formation was detected by incorporation of SYBR Green I using ROX as a passive reference (ABgene). The expression ratios of the analyzed cDNAs were related to the normalized Cp of the housekeeping gene GAPDH in control and sample. The following primers were used: GAPDH: 5′-[…]-3′; 5′-[…]-3′; PSA: 5′-[…]-3′; 5′-[…]-3′. Statistical analysis for qPCR was performed by group-wise comparison based on PCR efficiencies and the mean crossing point deviation between sample and control group using Relative Expression Software Tool^19. Experiments were repeated and analysed three times.

[3] = target: T1, LSD1 (Homo sapiens, UniProt O60341); assay: Chromatin immunoprecipitation (ChIP) of histone methylation marks at the PSA promoter in LNCaP cells; type: cell-based
T1 construct: endogenous in cells; host or cells: LNCaP cells
Description: ChIP experiments were performed essentially as described^14. […] LNCaP cells were transfected three days before harvesting for ChIP with or without siRNA (Qiagen) following the manufacture's instructions. Immunoprecipitation was performed with specific antibodies (α-monoMeK9H3, α-diMeK9H3, α-triMeK9H3, α-monoMeK4H3, α-diMeK4H3, α-triMeK4H3, α-H3 (abcam), α-LSD1, and α-AR PG21 (Upstate Biotechnology) on GammaBind TMSepharose 4B (GE-Healthcare). For PCR, 1-5 μl out of 50 μl DNA extract was used. For Re-ChIP assays, immunoprecipitations were sequentially washed with TSE I, TSE II, buffer III, and TE^14. Complexes were eluted by incubation with 10 mM DTT at 37° C. for 30 min, diluted 50 times with dilution buffer^14 followed by a second immunoprecipitation with the indicated antibody. Primer sequences were as follows: exon 4, PSA (+3909/+4067) 5′-[…]-3′ and 5′-[…]-3′; middle, PSA (−2223/−1951) 5′-[…]-3′ and 5′-[…]-3′; PCR primers for ARE I+II (PSA (−459/−121)) and ARE III (PSA ([…])), GAPDH, and U6 have been previously described^7, 15, 16.

[4] = tested on: LSD1-induced activation of AR; assay: Transient transfection AR-dependent luciferase reporter assay in 293 cells (LSD1 + AR co-expression); type: cell-based; settings: R1881, 3×10^−3 M pargyline, 1×10^−3 M deprenyl, or 1×10^−4 M clorgyline for 18 hours, FIG. 4c
Description: as §1

[5] = R1881, PSA promoter, pargyline, FIG. 8

SMILES	activity of other nuclear receptors [1]	androgen-induced expression of the endogenous PSA gene [2]	androgen-induced expression of the endogenous PSA gene ([2]; listed as Pargyline)	demethylation of mono- and dimethyl H3-K9 during androgen-induced transcription ([3]; R1881, PSA promoter (ARE I+II), pargyline 18 hours, FIG. 3b)	methylation levels of trimethyl H3-K9 ([3]; R1881, PSA promoter, pargyline, FIG. 3b)	methylation status of H3-K27 [3, 5]	methylation status of H4-K20 [3, 5]	methylation of histone H3 at lysine 4 (H3-K4) ([3]; in vivo ChIP, pargyline, FIG. 3b)	LSD1-induced activation of AR [4]
C#CCN(C)Cc1ccccc1 [pargyline, N-methyl-N-2-propynylbenzylamine]	does not influence; also recorded: fails to block	blocks	reduces	blocks	remain unchanged	remain unchanged	remain unchanged	not influenced	severely impair
C#CCN(C)[C@H](C)Cc1ccccc1 [deprenyl, (R)-(−)-N,2-dimethyl-N-2-propynylphenethylamine]	–	–	–	–	–	–	–	–	severely impair
C#CCN(C)CCCOc1ccc(Cl)cc1Cl [clorgyline, N-methyl-N-propargyl-3-(2,4-dichlorophenoxy-)propylamine]	–	–	–	–	–	–	–	–	severely impair
